Measured values reported in ChEMBL document CHEMBL1139872, “A high-throughput screen for aggregation-based inhibition in a large compound library” (J Med Chem, 2007).

What was measured:
Beta-lactamase [1] = molecular target: T1, Beta-lactamase (Escherichia coli K-12, UniProt P00811)
Description: Aggregate based-inhibition of Escherichia coli AmpC beta lactamase using stringent assay conditions in presence of 0.01% Triton X-100 detergent

Beta-lactamase [2] = molecular target: T1, Beta-lactamase; assay: Inhibition of Escherichia coli AmpC beta lactamase using relaxed assay conditions in presence of 0.00001% Triton X-100 detergent

T1 sequence (P00811 whole entry): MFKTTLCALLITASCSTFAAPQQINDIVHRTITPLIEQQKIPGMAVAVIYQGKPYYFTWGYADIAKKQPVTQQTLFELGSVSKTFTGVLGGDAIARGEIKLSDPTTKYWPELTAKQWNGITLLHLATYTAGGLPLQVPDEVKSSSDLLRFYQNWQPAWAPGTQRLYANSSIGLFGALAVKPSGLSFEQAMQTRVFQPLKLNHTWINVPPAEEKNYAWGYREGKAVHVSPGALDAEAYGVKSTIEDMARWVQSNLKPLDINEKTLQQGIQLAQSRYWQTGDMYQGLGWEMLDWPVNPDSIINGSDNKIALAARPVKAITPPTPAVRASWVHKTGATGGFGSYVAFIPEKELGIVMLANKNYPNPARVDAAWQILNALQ

IC50 (Beta-lactamase [1]) [µM] | IC50 (Beta-lactamase [2]) [µM] | SMILES
> 300 | 130 | Fc1c(F)c(F)c(CSc2nc3ccccc3[nH]2)c(F)c1F
> 100 | > 100 | Cc1ccc2nc(-c3ccccc3)cc(O)c2c1
40 | 20 | O=C(Nc1ccc(Oc2ccc(NC(=O)c3ccco3)c(NC(=O)c3ccco3)c2)cc1)c1ccco1
> 200 | 120 | O=C(Nc1cccc2ccccc12)c1ccc(Br)o1
> 66 | 20 | COc1c(F)c(F)c(C(=O)Nc2ccc(NC(=O)c3ccco3)cc2)c(F)c1F
126 | 22 | O=c1[nH]c2cc(Cl)ccc2c(O)c1-c1cccc(Oc2ccccc2)c1
150 | 35 | Clc1ccccc1C(c1ccccc1)(c1ccccc1)n1ccnc1 [CLOTRIMAZOLE]
100 | 20 | Clc1ccc(CSC(Cn2ccnc2)c2ccc(Cl)cc2Cl)cc1 (stereo not given) [SULCONAZOLE]

SMILES | IC50 (Beta-lactamase [1]) [µM] | IC50 (Beta-lactamase [2]) [µM]
Cc1cccc(OCC(=O)Nc2cccc(-c3nnc(-c4ccccc4)o3)c2)c1C | > 66 | 13
Cc1cc2c(C(C)C)c(O)c(O)c(C=O)c2c(O)c1-c1c(C)cc2c(C(C)C)c(O)c(O)c(C=O)c2c1O [GOSSYPOL] | 82 | 46
